For assay [1], the target named is T1, rat lung glucocorticoid receptor (Rattus norvegicus, UniProt P06536).
T1 construct: Immediately after resection of the lungs, the tissue was frozen in ice; The cytosol was prepared; from tissue; host or cells: lung cytosol of adrenalectomized male Sprague-Dawley rats
T1 sequence (P06536 1-795): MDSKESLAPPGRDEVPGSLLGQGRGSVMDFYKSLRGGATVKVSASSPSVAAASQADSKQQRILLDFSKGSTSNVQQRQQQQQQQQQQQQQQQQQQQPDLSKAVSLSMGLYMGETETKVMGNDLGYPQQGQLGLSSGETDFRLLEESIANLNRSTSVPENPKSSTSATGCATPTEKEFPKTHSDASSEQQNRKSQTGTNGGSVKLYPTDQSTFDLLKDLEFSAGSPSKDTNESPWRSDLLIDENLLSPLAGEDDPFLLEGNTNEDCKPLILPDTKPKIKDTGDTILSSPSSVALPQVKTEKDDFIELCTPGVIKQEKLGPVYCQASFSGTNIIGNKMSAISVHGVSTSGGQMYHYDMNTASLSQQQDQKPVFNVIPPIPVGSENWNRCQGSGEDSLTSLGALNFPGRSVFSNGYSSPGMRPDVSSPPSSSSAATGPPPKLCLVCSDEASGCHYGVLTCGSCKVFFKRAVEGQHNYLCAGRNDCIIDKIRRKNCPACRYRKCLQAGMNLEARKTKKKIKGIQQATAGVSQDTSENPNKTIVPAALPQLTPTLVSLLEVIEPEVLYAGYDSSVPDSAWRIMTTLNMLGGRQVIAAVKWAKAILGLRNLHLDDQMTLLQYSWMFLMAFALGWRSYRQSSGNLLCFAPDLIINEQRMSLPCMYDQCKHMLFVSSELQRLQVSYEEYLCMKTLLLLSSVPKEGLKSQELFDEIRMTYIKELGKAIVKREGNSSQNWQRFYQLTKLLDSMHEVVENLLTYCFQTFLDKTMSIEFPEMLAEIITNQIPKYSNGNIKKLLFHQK
To be noted: previously found, cited from earlier work.

In assay [2] the test system is forearms of a human volunteer. Nature of the assay: Further human vasoconstriction testing, Method 1. It is filed as in vivo. Here is the method:
The mixtures, in 50 μL amounts, were applied to circular patches (8 mm diameter). After evaporation of ethanol, the patches were applied to the forearms of a human volunteer, and covered with a water impervious film for 3 hr. The intensity of vasoconstriction (scale 0-4) was judged at various time intervals after removal of the patches. The grading scale was as follows: 0, normal skin; 1, slight pallor of indistinct outline; 2, pallor with at least two corners outlined; 3, even pallor with a clear outline of the application sites; 4, very intense pallor. The skin tests (2-4 tests on each compound) were performed on the same person.

Assay [3] relates to forearm of a human volunteer. Nature of the assay: Human vasoconstriction test. It is filed as in vivo. On the set-up: key: 0 = normal skin, 4 = very intense pallor. To be noted: 10 mM. Here is the method: Test compounds (10 mM) were dissolved in ethanol/propylene glycol (9/1) solution, and 50 μL of the mixtures were applied to circular patches, 8 mm in diameter. After ethanol evaporation, the patches were applied to the forearm of a human volunteer, and covered with a water impervious film for 3 hours. The intensity of vasoconstriction was judged 1, 8, 17 and 24 hours after the patches were removed.
The grading scale for the vasoconstriction activity was as follows: 0, normal skin; 1, slight pallor of indistinct outline; 2, pallor with at least two corners outlined; 3, even pallor with a clear outline of the application sites; 4, very intense pallor.

Values joined by “and” are separate entries in the source; they are usually repeats but may differ in a detail not shown here. Equal values may be shown once. Read-outs that look alike come from different tables or passages of the source.

Take `CCOC(=O)O[C@]1(C(=O)OCCl)CC[C@H]2[C@@H]3CCC4=CC(=O)C=C[C@]4(C)[C@H]3[C@@H](O)C[C@@]21C` [Loteprednol etabonate, chloromethyl 17α-ethoxycarbonyloxy-11β-hydroxyandrosta-1,4-dien-3-one-17β-carboxylate, reference compound]: the RBA in assay [1] (with Δ1-cortienic acid) is on record as 420; in assay [1] (without Δ1-cortienic acid), 152. Besides, the Vasoconstriction activity in assay [2] (3 Hours, 0.01 mM) was found to be 0; in assay [2] (3 Hours, 0.05 mM), 0; in assay [2] (3 Hours, 0.1 mM) it was 1; in assay [2] (3 Hours, 0.5 mM) it was 2; in assay [2] (3 Hours, 1 mM) it was 3; in assay [2] (3 Hours, 5 mM), 3. For the same compound, the Vasoconstriction activity came to 4 in assay [2] (3 Hours, 10 mM); 0 in assay [2] (20 Hours, 0.01 mM); 0 in assay [2] (20 Hours, 0.05 mM); 0 in assay [2] (20 Hours, 0.1 mM); 0 in assay [2] (20 Hours, 0.5 mM); 0 in assay [2] (20 Hours, 1 mM). The Vasoconstriction activity in assay [2] (20 Hours, 5 mM) was 1; in assay [2] (20 Hours, 10 mM) it was 2; in assay [3] (1 hour after patch removal), 2; in assay [3] (8 hours after patch removal), 3 and 2; in assay [3] (17 hours after patch removal) it was 2; in assay [3] (24 hours after patch removal), 2 and 1.

The values are drawn from US5981517A, “Androstene derivatives” (priority 1997, dated 1999).
